Reference: patent US10932472B2, “Coffee extract and its agrochemical use against plant pathogens” (KAMAD KNOWLEDGE SOLUTIONS SL, priority 2013, dated 2021)

Legend:
Settings in all cases: in vitro conditions
[1] = system: coffee leaf rust uredospores; assay: In vitro germination of coffee leaf rust uredospores (laboratory tests 2013); type: cell-based, Hemileia vastarix
Description: A laboratory methodology to understand the mode of action of PA1 (1%) was developed. The efficacy was performed using coffee leaf rust uredospores, collected in the field.

[2] = system: Botrytis cinerea; assay: In vitro inhibition of mycelial growth on amended PDA media; type: cell-based
Description: (§1) Additionally, an in vitro efficacy test was performed in order to determine the effect of PA5 against other Phytopathogens. Each pathogen strain was exposed to 0.5 and 2 cc/l, amended to PDA media. The inhibition percentage was evaluated against the control during 7 days.

[3] = system: Phytophthora capcisi; assay: as above; type: cell-based
Description: as §1

[4] = system: Collectotrichum sp; assay: as above; type: cell-based
Description: as §1

O=C(O)c1ccc(O)c(O)c1 [PA, 3,4-dihydroxybenzoic acid]
concentration with direct fungicide action on uredospores germination [1]: 0.25 mg/mL | growth inhibition [2]: inhibits the growth | growth inhibition [3]: inhibits the growth | growth inhibition [4]: inhibits the growth
